Patent US9938261B2, “Heterocyclic compounds and methods of use thereof” (AMBIT BIOSCIENCES CORPORATION, priority 2011, dated 2018)

Tests used:
FLT3 = molecular target: T1, FLT3 (Homo sapiens, UniProt P36888); experiment: Competition binding assay, FLT3 Kd; details: competition binding
T1 construct: made in house
T1 sequence (P36888 27-993): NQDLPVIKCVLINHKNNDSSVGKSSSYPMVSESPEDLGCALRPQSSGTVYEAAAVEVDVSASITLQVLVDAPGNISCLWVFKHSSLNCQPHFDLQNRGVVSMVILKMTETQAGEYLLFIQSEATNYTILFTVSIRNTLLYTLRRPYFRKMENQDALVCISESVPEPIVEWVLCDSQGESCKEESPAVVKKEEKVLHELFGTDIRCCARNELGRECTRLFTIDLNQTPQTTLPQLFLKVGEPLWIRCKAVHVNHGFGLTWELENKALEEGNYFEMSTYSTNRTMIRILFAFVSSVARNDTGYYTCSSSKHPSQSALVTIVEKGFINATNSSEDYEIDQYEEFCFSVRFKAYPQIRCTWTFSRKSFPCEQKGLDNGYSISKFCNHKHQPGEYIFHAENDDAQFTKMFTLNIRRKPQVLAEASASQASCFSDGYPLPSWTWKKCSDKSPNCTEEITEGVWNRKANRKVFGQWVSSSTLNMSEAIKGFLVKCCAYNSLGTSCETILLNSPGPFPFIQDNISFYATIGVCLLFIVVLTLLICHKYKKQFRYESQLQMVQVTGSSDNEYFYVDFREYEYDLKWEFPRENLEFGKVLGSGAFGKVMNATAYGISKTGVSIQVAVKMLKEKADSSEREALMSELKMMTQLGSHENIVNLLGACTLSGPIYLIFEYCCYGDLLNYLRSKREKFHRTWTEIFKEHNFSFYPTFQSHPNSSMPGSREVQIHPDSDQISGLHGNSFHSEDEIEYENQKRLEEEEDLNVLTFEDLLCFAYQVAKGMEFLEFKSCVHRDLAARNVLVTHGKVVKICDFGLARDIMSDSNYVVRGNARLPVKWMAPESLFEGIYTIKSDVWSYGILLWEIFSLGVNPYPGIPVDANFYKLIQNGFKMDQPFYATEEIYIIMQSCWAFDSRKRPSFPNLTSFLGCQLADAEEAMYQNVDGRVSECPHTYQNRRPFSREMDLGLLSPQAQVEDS
Outline: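 Read-out is quantitative PCR of kinase recovered from affinity beads after competition with test compound. Binding reached equilibrium over 1 hour at room temperature; Kd values come from eleven-point threefold serial dilutions.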

CSF1R = CSF1R (Homo sapiens, UniProt P07333); experiment: HEK293 CSF1R phosphorylation MSD assay; type: cell-based; parameters: expressed in transfected cells; host or cells: HEK293; details: HEK293 cells, M-CSF stimulated CSF1R phosphorylation, MSD; read-out: HEK293 pCSF1R M-CSF MSD:IC50
Sequence of CSF1R (P07333 20-972): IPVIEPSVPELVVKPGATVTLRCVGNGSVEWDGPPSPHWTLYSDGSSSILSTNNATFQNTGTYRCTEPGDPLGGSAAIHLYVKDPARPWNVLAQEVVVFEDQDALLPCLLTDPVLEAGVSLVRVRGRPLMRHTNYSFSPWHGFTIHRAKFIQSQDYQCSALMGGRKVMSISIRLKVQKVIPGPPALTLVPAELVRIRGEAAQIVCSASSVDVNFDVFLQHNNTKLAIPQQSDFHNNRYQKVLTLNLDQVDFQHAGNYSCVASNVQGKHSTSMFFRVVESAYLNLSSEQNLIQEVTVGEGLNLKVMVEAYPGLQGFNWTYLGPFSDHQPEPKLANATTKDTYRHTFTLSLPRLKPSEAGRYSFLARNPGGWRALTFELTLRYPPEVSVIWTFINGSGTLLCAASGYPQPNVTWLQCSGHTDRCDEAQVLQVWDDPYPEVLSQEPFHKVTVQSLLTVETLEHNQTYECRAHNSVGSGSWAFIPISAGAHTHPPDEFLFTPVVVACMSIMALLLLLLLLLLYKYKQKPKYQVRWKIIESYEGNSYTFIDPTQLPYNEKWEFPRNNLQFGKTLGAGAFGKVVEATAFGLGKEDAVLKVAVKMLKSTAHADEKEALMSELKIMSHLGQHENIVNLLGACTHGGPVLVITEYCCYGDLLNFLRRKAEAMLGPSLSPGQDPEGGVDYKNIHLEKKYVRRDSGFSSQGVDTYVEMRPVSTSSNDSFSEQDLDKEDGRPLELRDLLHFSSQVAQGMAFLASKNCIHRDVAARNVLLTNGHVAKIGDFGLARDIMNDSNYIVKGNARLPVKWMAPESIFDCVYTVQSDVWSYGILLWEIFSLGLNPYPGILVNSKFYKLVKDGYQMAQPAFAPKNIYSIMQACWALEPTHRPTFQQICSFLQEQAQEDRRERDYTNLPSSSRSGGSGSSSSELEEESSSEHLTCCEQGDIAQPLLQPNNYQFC
Outline: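 Ligand-induced CSF1R autophosphorylation was measured by MSD sandwich assay: CSF1R-FKBP from lysates captured via FK506, anti-phosphotyrosine readout. Cells were exposed to compound for 2 h (9-point, half-log, 0.5% DMSO) before 5 min 50 ng/mL M-CSF. Reported IC50 is the mean of duplicate-plate IC50s relative to DMSO control.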

Row | Structure (SMILES) | Kd (FLT3) | IC50 (CSF1R)
1 | O[C@@H]1[C@H](O)CCC[C@H]1Nc1nc2ccc(Cn3cnc4cc(-n5cncn5)cnc43)cc2s1 [Example 234, (1R,2S,3R)-3-((6-((6-(1H-1,2,4-Triazol-1-yl)-3H-imidazo[4,5-b]pyridin-3-yl)methyl)benzo[d]thiazol-2-yl)amino)cyclohexane-1,2-diol] | 200 to 1000 nM | 50 to 200 nM
2 | O[C@@H]1[C@H](O)CCC[C@H]1Nc1nc2ccc(Cn3cnc4cc(N5CCOCC5)ccc43)cc2s1 [Example 235, (1R,2S,3R)-3-((6-((5-morpholino-1H-benzo[d]imidazol-1-yl)methyl)benzo[d]thiazol-2-yl)amino)cyclohexane-1,2-diol] | 200 to 1000 nM | 50 to 200 nM
3 | Cn1nnc(-c2ccc3c(c2)ncn3Cc2ccc3nc(N[C@@H]4CCC[C@@H](O)[C@H]4O)sc3c2)n1 [Example 236, (1R,2S,3R)-3-((6-((5-(2-methyl-2H-tetrazol-5-yl)-1H-benzo[d]imidazol-1-yl)methyl)benzo[d]thiazol-2-yl)amino)cyclohexane-1,2-diol] | 200 to 1000 nM | 50 to 200 nM
